Experimental data taken from patent publication US8778896B2, “Levoisovalerylspiramycin I, II or III, preparations, preparation methods and uses thereof” (Shenyang Tonglian Group Co., Ltd., priority 2010, dated 2014).
Converted amounts (≈) assume the structure as drawn.

Assays:
staphylococcus aureus12 [1] = assay: MIC against the infecting test organism; assay type: cell-based, staphylococcus aureus; conditions: read-out: MIC
[2] = test system: streptococcus pneumoniae (112); assay: Clinical isolates, agar double dilution method; assay type: cell-based; conditions: 112 clinical isolates of streptococcus pneumoniae; for MIC50: read-out: MIC50; for MIC90: read-out: MIC90
[3] = test system: Chlamydia Trachomatis D/UW-3/Cx; assay: Chlamydia in vitro MIC, McCoy cells, immunofluorescence; assay type: cell-based; conditions: 48 hours, read-out: MIC
[4] = test system: hemophilus influenzae (37); assay: Clinical isolates, agar double dilution method; assay type: cell-based; conditions: 37 clinical isolates of hemophilus influenzae; for MIC50 / MIC90: Haemophilus influenzae; for MIC50: read-out: MIC50; for MIC90: read-out: MIC90
[5] = test system: streptococcus pneumoniae57; assay: Curative effect on mouse with abdominal infection (ED50); assay type: in vivo, streptococcus pneumoniae; conditions: Streptococcus, 168 h, streptococcus pneumoniae57, challenging dose 8.8 × 10^4 CFU/0.5 ml, deaths in 7 days, Bliss, read-out: ED50
Description: (§1) Test method: preparation of infection bacterial liquid: taking out the test bacterial liquid which is kept in a refrigerator at −80[…] to room temperature for about 1 h, then inoculating streptococcus pneumonia, pyogenic streptococcus and enterococcus absorbing 0.1 ml bacterial liquid respectively to 2 ml MH broth (add 10% inactivated horse serum), and inoculating 0.1 ml bacterial liquid of staphylococcus aureus to 2 ml MH broth according to the same method above; putting it in an incubator at 37[…] to be cultivated for 18 h, to obtain original bacterial liquid; diluting the original bacterial liquid with 5% gastric mucin to make animals infected with 100% lethal bacteria, to obtain infection bacterial liquid.
(§2) The clinical route of administration of carrimycin is proposed to be oral administration, thus intragastric administration is adopted in carrimychin test. Levoisovalerylspiramycin I (obtained in Embodiment 1) and of crystalline compound of levoisovalerylspiramycin I (prepared in Embodiment 27) are fed to animals via […].
(§3) After the mice are infected, respectively feed each mouse 0.2 ml via intragastric administration at 0.5 to 6 h, and they have no adverse reaction. Observe the number of deaths in 7 days, and calculate the 50% effective dose (ED50) of each drug for the infected mouse and compare the protective effect of drugs by Bliss program.

[6] = test system: streptococcus pneumoniae3; assay: as above; assay type: in vivo, streptococcus pneumoniae; conditions: Streptococcus, 168 h, streptococcus pneumoniae3, challenging dose 6.4 × 10^4 CFU/0.5 ml, deaths in 7 days, Bliss, read-out: ED50
Description: as §1, §2, §3

[7] = test system: streptococcus pneumoniae18; assay: as above; assay type: in vivo, streptococcus pneumoniae; conditions: Streptococcus, 168 h, streptococcus pneumoniae18, challenging dose 9.6 × 10^4 CFU/0.5 ml, deaths in 7 days, Bliss, read-out: ED50
Description: as §1, §2, §3

[8] = test system: adult acute respiratory infections caused by sensitive bacteria; assay: Clinical test versus Azithromycin, multi-center random double blind; assay type: in vivo; conditions: patients 18 to 65 years
Description: Adopt a multi-center, random, two blind, double simulation control test, which is carried out in 5 hospitals concurrently according to the unified clinical testing program.
1. Patients from 18 to 65 years old (men and women);
2. Sensitive acute respiratory infections caused by sensitive bacteria include acute bacterial pharyngitis, acute suppurative tonsillitis, acute tracheobronchitis, mild pneumonia and acute nasosinusitis etc;
3. Any subject shall sign an informed consent before being selected.
4. All subjects shall be contracepted in the research period and within at least 3 months upon being dosed.
1. Those with hepatic or renal insufficiency (Blood Cr>1.5 mg/dl and ALT>normal upper limit)
2. The women in pregnancy or lactation
3. Those with gastrointestinal tract diseases, who cannot take drugs orally.
4. Those who take antibacterial within one week before the selection.
According to statistics on the test results by statistics experts, the clinical efficacy (FAS) is: […]

[9] = test system: pyogenic streptococcus 102; assay: MIC against the infecting test organism; assay type: cell-based; conditions: read-out: MIC
staphylococcus aureus76 [10] = assay: MIC against the infecting test organism; assay type: cell-based, staphylococcus aureus; conditions: read-out: MIC
staphylococcus aureus76 [11] = assay: Curative effect on mouse with abdominal infection (ED50); assay type: in vivo, staphylococcus aureus; conditions: Staphylococcus, AUREUS76, 168 h, staphylococcus aureus76, challenging dose 5.8 × 10^4 CFU/0.5 ml, deaths in 7 days, Bliss, read-out: ED50
Description: as §1, §2, §3

staphylococcus aureus16 = assay: as above; assay type: in vivo, staphylococcus aureus; conditions: Staphylococcus, AUREUS16, 168 h, staphylococcus aureus16, challenging dose 5.2 × 10^3 CFU/0.5 ml, deaths in 7 days, Bliss, read-out: ED50
Description: as §1, §2, §3

staphylococcus aureus12 [12] = assay: as above; assay type: in vivo, staphylococcus aureus; conditions: Staphylococcus, AUREUS12, 168 h, staphylococcus aureus12, challenging dose 4.8 × 10^4 CFU/0.5 ml, deaths in 7 days, Bliss, read-out: ED50
Description: as §1, §2, §3

staphylococcus aureus21 = assay: as above; assay type: in vivo, staphylococcus aureus; conditions: Staphylococcus, AUREUS21, 168 h, staphylococcus aureus21, challenging dose 4.2 × 10^4 CFU/0.5 ml, deaths in 7 days, Bliss, read-out: ED50
Description: as §1, §2, §3

[13] = Acute toxicity on rats via oral administration; conditions: 4500 mg/kg
Description: Both mice and rats take drugs orally (levoisovalerylspiramycin I, II and III prepared in Embodiment 1)
After observing the mice and rats for two days before test, and those without abnormal conditions is carried out test. Don't give anything to eat to mice and rats overnight before test. […] […] Observe those taking drugs for one week for toxic reaction and death.

12 strains of bacteria = assay: Protective effect on mouse infected with 12 strains of bacteria; assay type: in vivo; conditions: in words
Description: as §1, §2, §3

CC[C@H]1OC(=O)[C@H](C)[C@@H](O[C@H]2C[C@@](C)(OC)[C@@H](O)[C@H](C)O2)[C@H](C)[C@@H](O[C@@H]2O[C@H](C)C[C@H](N(C)C)[C@H]2O)[C@](C)(O)C[C@@H](C)CN(C)[C@H](C)[C@@H](O)[C@]1(C)O [azithromycin, reference compound]
MIC (staphylococcus aureus12 [1]): 2 mg/L (≈ 2.67 µM) | MIC50 [2]: 0.25 mg/L (≈ 0.334 µM) | MIC90 [2]: 8 mg/L (≈ 10.7 µM) | MIC [3]: 0.25 mg/L (≈ 0.334 µM) | MIC50 [4]: 0.25 mg/L (≈ 0.334 µM) | MIC90 [4]: 2 mg/L (≈ 2.67 µM) | ED50 [5]: 19 mg/kg | ED50 [6]: 18.3 mg/kg | ED50 [7]: 14.9 mg/kg | adverse reaction [8]: 7.6% | clearance of pathogens [8]: 92.86% | clinical efficacy (FAS) [8]: 89.61% | MIC [9]: 0.5 mg/L (≈ 0.668 µM) | MIC (staphylococcus aureus76 [10]): 1 mg/L (≈ 1.34 µM) | ED50 (staphylococcus aureus76 [11]): 58.8 mg/kg | ED50 (staphylococcus aureus16): 32 mg/kg | ED50 (staphylococcus aureus12 [12]): 120 mg/kg | ED50 (staphylococcus aureus21): 143 mg/kg

CC[C@H]1OC(=O)[C@H](C)[C@@H](O[C@H]2C[C@@](C)(OC)[C@@H](O)[C@H](C)O2)[C@H](C)[C@@H](O[C@@H]2O[C@H](C)C[C@H](N(C)C)[C@H]2O)[C@](C)(O)C[C@@H](C)C(=O)[C@H](C)[C@@H](O)[C@]1(C)O [erythrocin, reference compound]
MIC50 [2]: 0.25 mg/L (≈ 0.341 µM) | MIC90 [2]: 64 mg/L (≈ 87.2 µM) | MIC [3]: 0.5 mg/L (≈ 0.681 µM) | MIC50 [4]: 0.06 mg/L (≈ 0.0818 µM) | MIC90 [4]: 32 mg/L (≈ 43.6 µM) | ED50 [5]: 102 mg/kg | ED50 [6]: 85.1 mg/kg | ED50 [7]: 57.1 mg/kg | MIC [9]: 0.5 mg/L (≈ 0.681 µM) | MIC (staphylococcus aureus76 [10]): 1 mg/L (≈ 1.36 µM) | ED50 (staphylococcus aureus76 [11]): 64.2 mg/kg | ED50 (staphylococcus aureus16): 82.4 mg/kg | ED50 (staphylococcus aureus12 [12]): 266 mg/kg | ED50 (staphylococcus aureus21): 214 mg/kg

COC1C(OC(C)=O)CC(=O)OC(C)C/C=C/C=C/C(OC2CCC(N(C)C)C(C)O2)C(C)CC(CC=O)C1OC1OC(C)C(OC2CC(C)(O)C(OC(=O)CC(C)C)C(C)O2)C(N(C)C)C1O (stereo not drawn) [Levoisovalerylspiramycin II, levoisovalerylspiramycin II]
MIC (staphylococcus aureus12 [1]): 1 mg/L (≈ 1.03 µM) | MIC50 [2]: 0.12 mg/L (≈ 0.124 µM) | MIC90 [2]: 2 mg/L (≈ 2.06 µM) | MIC [3]: 0.25 mg/L (≈ 0.258 µM) | MIC range [4]: 0.03 to 32 mg/L | MIC50 [4]: 0.12 mg/L (≈ 0.124 µM) | MIC90 [4]: 1 mg/L (≈ 1.03 µM) | ED50 [5]: 13.1 mg/kg | ED50 [6]: 8.99 mg/kg | ED50 [7]: 8.98 mg/kg | LD50 at 1 week ([13]; rat, in vivo, po): > 4500 mg/kg | Mortality rate (%) ([13]; rat, in vivo, po, 1 week): 15% | mortality ([13]; rat, in vivo, po, 1 week): 3 | adverse reaction [8]: 2.5% | clearance of pathogens [8]: 97.56% | clinical efficacy (FAS) [8]: 92.30% | MIC [9]: 0.12 mg/L (≈ 0.124 µM) | MIC (staphylococcus aureus76 [10]): 0.25 mg/L (≈ 0.258 µM) | ED50 (staphylococcus aureus76 [11]): 22.3 mg/kg | ED50 (staphylococcus aureus16): 20.9 mg/kg | ED50 (staphylococcus aureus12 [12]): 108 mg/kg | ED50 (staphylococcus aureus21): 38.9 mg/kg

COC1C(O)CC(=O)OC(C)C/C=C/C=C/C(OC2CCC(N(C)C)C(C)O2)C(C)CC(CC=O)C1OC1OC(C)C(OC2CC(C)(O)C(OC(=O)CC(C)C)C(C)O2)C(N(C)C)C1O (stereo not drawn) [Levoisovalerylspiramycin I, levoisovalerylspiramycin I]
MIC (staphylococcus aureus12 [1]): 1 mg/L (≈ 1.08 µM) | MIC50 [2]: 0.12 mg/L (≈ 0.129 µM) | MIC90 [2]: 2 mg/L (≈ 2.16 µM) | MIC [3]: 0.25 mg/L (≈ 0.27 µM) | MIC range [4]: 0.03 to 32 mg/L | MIC50 [4]: 0.12 mg/L (≈ 0.129 µM) | MIC90 [4]: 1 mg/L (≈ 1.08 µM) | ED50 [5]: 13.9 mg/kg | ED50 [6]: 9.73 mg/kg | ED50 [7]: 9.51 mg/kg | LD50 at 1 week ([13]; rat, in vivo, po): > 4500 mg/kg | Mortality rate (%) ([13]; rats, oral): 15% | mortality ([13]; rats, oral, deaths of 20 animals, observed one week): 3 | protective effect (curative effect) on infected mouse (12 strains of bacteria): good protective effect | adverse reaction [8]: 2.5% | clearance of pathogens [8]: 97.56% | clinical efficacy (FAS) [8]: 92.30% | MIC [9]: 0.12 mg/L (≈ 0.129 µM) | MIC (staphylococcus aureus76 [10]): 0.5 mg/L (≈ 0.539 µM) | ED50 (staphylococcus aureus76 [11]): 24.4 mg/kg | ED50 (staphylococcus aureus16): 23.5 mg/kg | ED50 (staphylococcus aureus12 [12]): 110 mg/kg | ED50 (staphylococcus aureus21): 42.7 mg/kg

CCC(=O)OC1CC(=O)OC(C)C/C=C/C=C/C(OC2CCC(N(C)C)C(C)O2)C(C)CC(CC=O)C(OC2OC(C)C(OC3CC(C)(O)C(OC(=O)CC(C)C)C(C)O3)C(N(C)C)C2O)C1OC (stereo not drawn) [Levoisovalerylspiramycin III, levoisovalerylspiramycin III]
MIC (staphylococcus aureus12 [1]): 1 mg/L (≈ 1.02 µM) | MIC50 [2]: 0.12 mg/L (≈ 0.122 µM) | MIC90 [2]: 4 mg/L (≈ 4.07 µM) | MIC [3]: 0.25 mg/L (≈ 0.254 µM) | MIC range [4]: 0.03 to 32 mg/L | MIC50 [4]: 0.12 mg/L (≈ 0.122 µM) | MIC90 [4]: 1 mg/L (≈ 1.02 µM) | ED50 [5]: 13.1 mg/kg | ED50 [6]: 8.99 mg/kg | ED50 [7]: 8.98 mg/kg | LD50 at 1 week ([13]; rat, in vivo, po): > 4500 mg/kg | Mortality rate (%) ([13]; rat, in vivo, po, 1 week): 15% | mortality ([13]; rat, in vivo, po, 1 week): 3 | adverse reaction [8]: 2.5% | clearance of pathogens [8]: 97.56% | clinical efficacy (FAS) [8]: 92.30% | MIC [9]: 0.12 mg/L (≈ 0.122 µM) | MIC (staphylococcus aureus76 [10]): 0.25 mg/L (≈ 0.254 µM) | ED50 (staphylococcus aureus76 [11]): 22.3 mg/kg | ED50 (staphylococcus aureus16): 20.9 mg/kg | ED50 (staphylococcus aureus12 [12]): 108 mg/kg | ED50 (staphylococcus aureus21): 38.9 mg/kg
